Results as given in PubChem BioAssay AID1259407 (Chemical Carcinogenesis Research Information System (CCRIS), 2018).
Calls of active or inactive are those of the source. No rule for the calls is given here.

Tested on: CCRIS mutagenicity, Ames/micronucleus/aberration tests
Test: CCRIS mutagenicity studies
[1] = Test System: AMES SALMONELLA TYPHIMURIUM, Strain/Indicator: TA97, Metabolic Activation: NONE, Method: PREINCUBATION
[2] = Test System: AMES SALMONELLA TYPHIMURIUM, Strain/Indicator: TA98, Metabolic Activation: NONE, Method: PREINCUBATION
[3] = Test System: AMES SALMONELLA TYPHIMURIUM, Strain/Indicator: TA100, Metabolic Activation: NONE, Method: PREINCUBATION
[4] = Test System: AMES SALMONELLA TYPHIMURIUM, Strain/Indicator: TA1535, Metabolic Activation: NONE, Method: PREINCUBATION
[5] = Test System: AMES SALMONELLA TYPHIMURIUM, Strain/Indicator: TA1537, Metabolic Activation: NONE, Method: PREINCUBATION

Compound: CC1=CC(=O)c2c(O)cccc2C1=O
- mutagenic call [1]: active; positive
- mutagenic call (Test System: AMES SALMONELLA TYPHIMURIUM, Strain/Indicator: TA97, Metabolic Activation: RAT, LIVER, S-9, PHENOBARBITAL AND 5,6-BENZOFLAVONE, Method: PREINCUBATION): active; positive
- mutagenic call (Test System: AMES SALMONELLA TYPHIMURIUM, Strain/Indicator: TA98, Metabolic Activation: HAMSTER LIVER S-9, AROCLOR 1254, Method: STANDARD PLATE): inactive; negative
- mutagenic call [2]: inactive; negative
- mutagenic call (Test System: AMES SALMONELLA TYPHIMURIUM, Strain/Indicator: TA98, Metabolic Activation: NONE, Method: STANDARD PLATE): inactive; negative
- mutagenic call (Test System: AMES SALMONELLA TYPHIMURIUM, Strain/Indicator: TA98, Metabolic Activation: RAT LIVER S-9, AROCLOR 1254, Method: STANDARD PLATE): inactive; negative
- mutagenic call (Test System: AMES SALMONELLA TYPHIMURIUM, Strain/Indicator: TA98, Metabolic Activation: RAT, LIVER, S-9, PHENOBARBITAL AND 5,6-BENZOFLAVONE, Method: PREINCUBATION): inactive; negative
- mutagenic call (Test System: AMES SALMONELLA TYPHIMURIUM, Strain/Indicator: TA100, Metabolic Activation: HAMSTER LIVER S-9, AROCLOR 1254, Method: STANDARD PLATE): inactive; negative
- mutagenic call [3]: inactive; negative
- mutagenic call (Test System: AMES SALMONELLA TYPHIMURIUM, Strain/Indicator: TA100, Metabolic Activation: NONE, Method: STANDARD PLATE): inactive; negative
- mutagenic call (Test System: AMES SALMONELLA TYPHIMURIUM, Strain/Indicator: TA100, Metabolic Activation: RAT LIVER S-9, AROCLOR 1254, Method: STANDARD PLATE): inactive; negative
- mutagenic call (Test System: AMES SALMONELLA TYPHIMURIUM, Strain/Indicator: TA100, Metabolic Activation: RAT, LIVER, S-9, PHENOBARBITAL AND 5,6-BENZOFLAVONE, Method: PREINCUBATION): active; positive
- mutagenic call (Test System: AMES SALMONELLA TYPHIMURIUM, Strain/Indicator: TA102, Metabolic Activation: NONE, Method: PREINCUBATION): inactive; negative
- mutagenic call (Test System: AMES SALMONELLA TYPHIMURIUM, Strain/Indicator: TA102, Metabolic Activation: NONE, Method: STANDARD PLATE): inactive; negative
- mutagenic call (Test System: AMES SALMONELLA TYPHIMURIUM, Strain/Indicator: TA102, Metabolic Activation: RAT, LIVER, S-9, PHENOBARBITAL AND 5,6-BENZOFLAVONE, Method: PREINCUBATION): inactive; negative
- mutagenic call (Test System: AMES SALMONELLA TYPHIMURIUM, Strain/Indicator: TA104, Metabolic Activation: NONE, Method: PREINCUBATION): active; positive
- mutagenic call (Test System: AMES SALMONELLA TYPHIMURIUM, Strain/Indicator: TA104, Metabolic Activation: RAT, LIVER, S-9, PHENOBARBITAL AND 5,6-BENZOFLAVONE, Method: PREINCUBATION): active; positive
- mutagenic call (Test System: AMES SALMONELLA TYPHIMURIUM, Strain/Indicator: TA1535, Metabolic Activation: HAMSTER LIVER S-9, AROCLOR 1254, Method: STANDARD PLATE): inactive; negative
- mutagenic call [4]: inactive; negative
- mutagenic call (Test System: AMES SALMONELLA TYPHIMURIUM, Strain/Indicator: TA1535, Metabolic Activation: NONE, Method: STANDARD PLATE): inactive; negative
- mutagenic call (Test System: AMES SALMONELLA TYPHIMURIUM, Strain/Indicator: TA1535, Metabolic Activation: RAT LIVER S-9, AROCLOR 1254, Method: STANDARD PLATE): inactive; negative
- mutagenic call (Test System: AMES SALMONELLA TYPHIMURIUM, Strain/Indicator: TA1535, Metabolic Activation: RAT, LIVER, S-9, PHENOBARBITAL AND 5,6-BENZOFLAVONE, Method: PREINCUBATION): inactive; negative
- mutagenic call (Test System: AMES SALMONELLA TYPHIMURIUM, Strain/Indicator: TA1537, Metabolic Activation: HAMSTER LIVER S-9, AROCLOR 1254, Method: STANDARD PLATE): inactive; negative
- mutagenic call [5]: inactive; negative
- mutagenic call (Test System: AMES SALMONELLA TYPHIMURIUM, Strain/Indicator: TA1537, Metabolic Activation: NONE, Method: STANDARD PLATE): inactive; negative
- mutagenic call (Test System: AMES SALMONELLA TYPHIMURIUM, Strain/Indicator: TA1537, Metabolic Activation: RAT LIVER S-9, AROCLOR 1254, Method: STANDARD PLATE): inactive; negative
- mutagenic call (Test System: AMES SALMONELLA TYPHIMURIUM, Strain/Indicator: TA1537, Metabolic Activation: RAT, LIVER, S-9, PHENOBARBITAL AND 5,6-BENZOFLAVONE, Method: PREINCUBATION): active; positive
- mutagenic call (Test System: AMES SALMONELLA TYPHIMURIUM, Strain/Indicator: TA1538, Metabolic Activation: NONE, Method: PREINCUBATION): inactive; negative
- mutagenic call (Test System: AMES SALMONELLA TYPHIMURIUM, Strain/Indicator: TA1538, Metabolic Activation: RAT, LIVER, S-9, PHENOBARBITAL AND 5,6-BENZOFLAVONE, Method: PREINCUBATION): inactive; negative
- mutagenic call (Test System: AMES SALMONELLA TYPHIMURIUM, Strain/Indicator: TA2637, Metabolic Activation: NONE, Method: PREINCUBATION): active; positive
- mutagenic call (Test System: AMES SALMONELLA TYPHIMURIUM, Strain/Indicator: TA2637, Metabolic Activation: RAT, LIVER, S-9, PHENOBARBITAL AND 5,6-BENZOFLAVONE, Method: PREINCUBATION): active; positive
- mutagenic call (Test System: AMES SALMONELLA TYPHIMURIUM, Strain/Indicator: TA2638, Metabolic Activation: NONE, Method: STANDARD PLATE): inactive; negative
- mutagenic call (Test System: Ames Salmonella typhimurium, Strain/Indicator: TA102, Metabolic Activation: None, Method: Preincubation): inactive; negative
- mutagenic call (Test System: Ames Salmonella typhimurium, Strain/Indicator: TA102, Metabolic Activation: Rat, Liver, S-9, Aroclor 1254 in 0.154 M KCl, Method: Preincubation): inactive; negative
- mutagenic call (Test System: E. COLI, Strain/Indicator: WP2 (PKM101), Metabolic Activation: NONE, Method: STANDARD PLATE): inactive; negative
- mutagenic call (Test System: E. COLI, Strain/Indicator: WP2 UVRA (PKM101), Metabolic Activation: NONE, Method: STANDARD PLATE): inactive; negative
- mutagenic call (Test System: MOUSE LYMPHOMA, Strain/Indicator: L5178Y (TK+/TK-), Metabolic Activation: NONE, Method: SUSPENSION/PLATE): inactive; positive. reevaluation of results: negative
- mutagenic call (Test System: MOUSE LYMPHOMA, Strain/Indicator: L5178Y (TK+/TK-), Metabolic Activation: RAT, LIVER, S-9, AROCLOR 1254, Method: SUSPENSION/PLATE): active; positive. reevaluation of results: equivocal

Compound: COc1ccc(N=[N+]([O-])c2ccc(OC)cc2)cc1
- mutagenic call (Test System: AMES SALMONELLA TYPHIMURIUM, Strain/Indicator: TA97, Metabolic Activation: HAMSTER, LIVER, S-9, AROCLOR 1254 (5%), Method: PREINCUBATION): inactive; negative
- mutagenic call (Test System: AMES SALMONELLA TYPHIMURIUM, Strain/Indicator: TA97, Metabolic Activation: HAMSTER, LIVER, S-9, AROCLOR 1254 (10 OR 30%), Method: PREINCUBATION): active; positive
- mutagenic call [1]: inactive; negative
- mutagenic call (Test System: AMES SALMONELLA TYPHIMURIUM, Strain/Indicator: TA97, Metabolic Activation: RAT, LIVER, S-9, AROCLOR 1254 (5 OR 10%), Method: PREINCUBATION): active; positive
- mutagenic call (Test System: AMES SALMONELLA TYPHIMURIUM, Strain/Indicator: TA97, Metabolic Activation: RAT, LIVER, S-9, AROCLOR 1254 (30%), Method: PREINCUBATION): inactive; negative
- mutagenic call (Test System: AMES SALMONELLA TYPHIMURIUM, Strain/Indicator: TA98, Metabolic Activation: HAMSTER, LIVER, S-9, AROCLOR 1254 (30%), Method: PREINCUBATION): inactive; negative
- mutagenic call [2]: inactive; negative
- mutagenic call (Test System: AMES SALMONELLA TYPHIMURIUM, Strain/Indicator: TA98, Metabolic Activation: RAT, LIVER, S-9, AROCLOR 1254 (30%), Method: PREINCUBATION): inactive; negative
- mutagenic call (Test System: AMES SALMONELLA TYPHIMURIUM, Strain/Indicator: TA100, Metabolic Activation: HAMSTER, LIVER, S-9, AROCLOR 1254 (30%), Method: PREINCUBATION): inactive; negative
- mutagenic call [3]: inactive; negative
- mutagenic call (Test System: AMES SALMONELLA TYPHIMURIUM, Strain/Indicator: TA100, Metabolic Activation: RAT, LIVER, S-9, AROCLOR 1254 (30%), Method: PREINCUBATION): inactive; negative
- mutagenic call (Test System: AMES SALMONELLA TYPHIMURIUM, Strain/Indicator: TA1535, Metabolic Activation: HAMSTER, LIVER, S-9, AROCLOR 1254 (30%), Method: PREINCUBATION): inactive; negative
- mutagenic call [4]: inactive; negative
- mutagenic call (Test System: AMES SALMONELLA TYPHIMURIUM, Strain/Indicator: TA1535, Metabolic Activation: RAT, LIVER, S-9, AROCLOR 1254 (30%), Method: PREINCUBATION): inactive; negative
- mutagenic call (Test System: AMES SALMONELLA TYPHIMURIUM, Strain/Indicator: TA1537, Metabolic Activation: HAMSTER, LIVER, S-9, AROCLOR 1254 (5 OR 10%), Method: PREINCUBATION): inactive; negative
- mutagenic call (Test System: AMES SALMONELLA TYPHIMURIUM, Strain/Indicator: TA1537, Metabolic Activation: HAMSTER, LIVER, S-9, AROCLOR 1254 (30%), Method: PREINCUBATION): active; positive
- mutagenic call [5]: inactive; negative
